Source: the supplement of paper PMC10307832

Tests used:
Experiment in all cases: relative viability (nuclei count vs DMSO), 5 days (fraction); higher = more cells survive
IPA-3 + Navitoclax = compound: C1=CC=C2C(=C1)C=CC(=C2SSC3=C(C=CC4=CC=CC=C43)O)O [IPA-3] + CC1(C)CCC(c2ccc(Cl)cc2)=C(CN2CCN(c3ccc(C(=O)NS(=O)(=O)c4ccc(N[C@H](CCN5CCOCC5)CSc5ccccc5)c(S(=O)(=O)C(F)(F)F)c4)cc3)CC2)C1 [Navitoclax] (partner 0.5 µM)
Outline: (§1)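 Relative viability equals treated-well nuclei counts divided by vehicle-well nuclei counts. Counts came from 4× images of lung cancer cell lines grown in 1536-well plates for 5 days after pin-tool dosing on the day after seeding. Dosing used one drug alone or a fixed anchor-drug dose plus five library-drug doses (not always all listed) in √10 steps, and values are medians of duplicate plates.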

IPA-3 + Lapatinib = compound: C1=CC=C2C(=C1)C=CC(=C2SSC3=C(C=CC4=CC=CC=C43)O)O [IPA-3] + CS(=O)(=O)CCNCc1ccc(-c2ccc3ncnc(Nc4ccc(OCc5cccc(F)c5)c(Cl)c4)c3c2)o1 [Lapatinib] (partner 2 µM)
Outline: as §1

Doramapimod + Bortezomib = compound: Cc1ccc(-n2nc(C(C)(C)C)cc2NC(=O)Nc2ccc(OCCN3CCOCC3)c3ccccc23)cc1 [Doramapimod] + CC(C)C[C@H](NC(=O)[C@H](Cc1ccccc1)NC(=O)c1cnccn1)B(O)O [Bortezomib] (partner 0.002 µM)
Outline: as §1

Doramapimod + Linsitinib = compound: Cc1ccc(-n2nc(C(C)(C)C)cc2NC(=O)Nc2ccc(OCCN3CCOCC3)c3ccccc23)cc1 [Doramapimod] + C[C@]1(O)C[C@@H](c2nc(-c3ccc4ccc(-c5ccccc5)nc4c3)c3c(N)nccn32)C1 [Linsitinib] (partner 1 µM)
Outline: as §1

Cell Line	relative viability (IPA-3 + Navitoclax; first compound 0.2 µM)	relative viability (IPA-3 + Navitoclax; first compound 0.6325 µM)	relative viability (IPA-3 + Navitoclax; first compound 2 µM)	relative viability (IPA-3 + Navitoclax; first compound 6.325 µM)	relative viability (IPA-3 + Navitoclax; first compound 20 µM)	relative viability (IPA-3 + Lapatinib; first compound 0.2 µM)	relative viability (IPA-3 + Lapatinib; first compound 0.6325 µM)	relative viability (IPA-3 + Lapatinib; first compound 2 µM)	relative viability (IPA-3 + Lapatinib; first compound 6.325 µM)	relative viability (IPA-3 + Lapatinib; first compound 20 µM)	relative viability (Doramapimod + Bortezomib; first compound 0.02 µM)	relative viability (Doramapimod + Bortezomib; first compound 0.06325 µM)	relative viability (Doramapimod + Bortezomib; first compound 0.2 µM)	relative viability (Doramapimod + Bortezomib; first compound 0.6325 µM)	relative viability (Doramapimod + Bortezomib; first compound 2 µM)	relative viability (Doramapimod + Linsitinib; first compound 0.02 µM)	relative viability (Doramapimod + Linsitinib; first compound 0.06325 µM)	relative viability (Doramapimod + Linsitinib; first compound 0.2 µM)	relative viability (Doramapimod + Linsitinib; first compound 0.6325 µM)	relative viability (Doramapimod + Linsitinib; first compound 2 µM)
NCI-H1792	0.939	0.665	0.55	0.675	0.825	1.07	0.888	0.94	0.894	1.01	0.946	0.952	0.948	1.05	0.831	0.434	0.434	0.536	0.615	0.351
COR-L23	1.11	0.975	1.07	0.983	0.926	1.09	0.985	1.01	1.02	0.988	1.12	0.914	0.962	0.997	0.969	0.962	0.917	0.827	0.933	0.931
HOP-62	1.08	0.9	1	0.943	1.34	1.2	0.935	0.918	1.13	1.16	0.594	0.97	1.15	0.468	0.703	0.88	1	1.17	0.91	0.992
NCI-H1915	0.794	0.817	0.782	0.782	0.738	1.06	0.968	0.934	0.941	1.02	0.978	1.09	1.04	1.02	0.936	1.1	1.17	1.1	1.12	1.09
BEN	0.0641	0.0847	0.0621	0.0718	0.0865	0.749	0.673	0.832	0.735	0.677	0.69	0.785	0.896	0.52	0.684	0.834	0.893	0.906	0.769	0.854
NCI-H1437	1.16	0.997	1.19	1.02	1.15	1.34	0.774	0.802	0.726	0.825	0.586	0.643	0.551	0.464	0.495	1.03	0.982	0.968	1.17	0.947
EMC-BAC-2	1.38	1.11	1.16	1.09	1.32	0.905	0.92	0.88	0.95	0.992	1.12	1.12	1.03	1.15	0.961	0.793	0.821	0.789	0.86	0.834
NCI-H647	1.54	1.02	1.15	0.589	0.554	1.71	1.02	0.876	0.335	0.0724	1.13	0.985	0.912	1.05	0.861	1.22	1.24	1.15	1.03	1.04
